{
  "source": "patent US20240269139A1",
  "about": "“COMPOUNDS FOR TARGETED PROTEIN DEGRADATION OF KINASES” (DANA-FARBER CANCER INSTITUTE, INC., priority 2020, published 2024)",
  "format_in_all_cases": "cell-based",
  "key": {"[1]": {"target": "protein kinases (human kinome) (Homo sapiens, UniProt Q9NYV4)", "sequence (Q9NYV4 whole entry)": "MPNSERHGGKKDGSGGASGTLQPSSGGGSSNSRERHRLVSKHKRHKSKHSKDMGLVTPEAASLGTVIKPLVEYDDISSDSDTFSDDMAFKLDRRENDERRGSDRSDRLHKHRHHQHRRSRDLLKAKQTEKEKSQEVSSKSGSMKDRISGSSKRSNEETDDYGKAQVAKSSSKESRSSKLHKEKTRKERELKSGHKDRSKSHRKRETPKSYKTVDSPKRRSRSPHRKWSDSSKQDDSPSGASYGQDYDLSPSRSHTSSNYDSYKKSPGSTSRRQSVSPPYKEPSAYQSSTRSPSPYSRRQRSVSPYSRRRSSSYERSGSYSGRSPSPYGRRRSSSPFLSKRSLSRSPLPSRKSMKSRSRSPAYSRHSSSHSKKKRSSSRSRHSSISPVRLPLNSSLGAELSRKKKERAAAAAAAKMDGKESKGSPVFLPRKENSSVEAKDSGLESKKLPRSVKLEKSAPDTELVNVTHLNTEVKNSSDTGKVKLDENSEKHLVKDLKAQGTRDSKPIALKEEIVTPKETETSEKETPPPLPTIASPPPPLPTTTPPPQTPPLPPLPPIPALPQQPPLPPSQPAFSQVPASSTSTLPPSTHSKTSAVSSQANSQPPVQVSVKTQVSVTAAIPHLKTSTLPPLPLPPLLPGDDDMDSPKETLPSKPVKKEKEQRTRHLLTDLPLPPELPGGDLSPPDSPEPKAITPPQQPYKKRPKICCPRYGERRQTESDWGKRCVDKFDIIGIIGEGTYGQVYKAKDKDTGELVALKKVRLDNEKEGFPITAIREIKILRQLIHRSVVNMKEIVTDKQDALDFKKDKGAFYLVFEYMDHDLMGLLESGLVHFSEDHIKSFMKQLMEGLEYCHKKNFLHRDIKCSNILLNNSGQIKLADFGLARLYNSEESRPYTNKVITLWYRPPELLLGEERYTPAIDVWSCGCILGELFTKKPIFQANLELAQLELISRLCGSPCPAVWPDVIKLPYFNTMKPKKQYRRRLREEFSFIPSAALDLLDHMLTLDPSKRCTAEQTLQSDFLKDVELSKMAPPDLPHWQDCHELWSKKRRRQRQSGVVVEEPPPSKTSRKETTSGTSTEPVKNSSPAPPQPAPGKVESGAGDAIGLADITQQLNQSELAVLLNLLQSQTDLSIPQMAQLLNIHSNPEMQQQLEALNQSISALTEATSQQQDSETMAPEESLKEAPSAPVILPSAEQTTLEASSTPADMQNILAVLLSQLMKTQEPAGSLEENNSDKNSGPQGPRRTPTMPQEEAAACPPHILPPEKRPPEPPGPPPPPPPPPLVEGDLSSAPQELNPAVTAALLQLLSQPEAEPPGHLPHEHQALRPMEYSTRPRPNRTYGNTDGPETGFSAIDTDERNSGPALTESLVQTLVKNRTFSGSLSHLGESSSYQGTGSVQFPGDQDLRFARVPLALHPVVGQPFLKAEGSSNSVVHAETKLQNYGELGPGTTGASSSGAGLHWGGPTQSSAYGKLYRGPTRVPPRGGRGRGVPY"}, "[2]": {"target": "protein kinases (human kinome) (Homo sapiens, UniProt Q16584)"}, "[3]": {"target": "T1, protein kinases (human kinome) (Homo sapiens, UniProt Q8TAS1)", "T1 sequence (Q8TAS1 1-419)": "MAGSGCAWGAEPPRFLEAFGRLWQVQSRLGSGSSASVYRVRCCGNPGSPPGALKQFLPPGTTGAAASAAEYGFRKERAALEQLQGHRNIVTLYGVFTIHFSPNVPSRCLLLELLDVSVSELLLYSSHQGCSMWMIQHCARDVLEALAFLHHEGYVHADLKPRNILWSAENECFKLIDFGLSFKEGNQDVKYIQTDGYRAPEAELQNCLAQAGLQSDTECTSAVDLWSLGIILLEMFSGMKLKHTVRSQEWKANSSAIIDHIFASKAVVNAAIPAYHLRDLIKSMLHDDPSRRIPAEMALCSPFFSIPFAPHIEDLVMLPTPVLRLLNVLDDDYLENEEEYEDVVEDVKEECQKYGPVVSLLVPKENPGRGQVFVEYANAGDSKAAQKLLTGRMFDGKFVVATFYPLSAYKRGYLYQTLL"}, "[4]": {"target": "protein kinases (human kinome) (Homo sapiens, UniProt O43683)", "sequence (O43683 whole entry)": "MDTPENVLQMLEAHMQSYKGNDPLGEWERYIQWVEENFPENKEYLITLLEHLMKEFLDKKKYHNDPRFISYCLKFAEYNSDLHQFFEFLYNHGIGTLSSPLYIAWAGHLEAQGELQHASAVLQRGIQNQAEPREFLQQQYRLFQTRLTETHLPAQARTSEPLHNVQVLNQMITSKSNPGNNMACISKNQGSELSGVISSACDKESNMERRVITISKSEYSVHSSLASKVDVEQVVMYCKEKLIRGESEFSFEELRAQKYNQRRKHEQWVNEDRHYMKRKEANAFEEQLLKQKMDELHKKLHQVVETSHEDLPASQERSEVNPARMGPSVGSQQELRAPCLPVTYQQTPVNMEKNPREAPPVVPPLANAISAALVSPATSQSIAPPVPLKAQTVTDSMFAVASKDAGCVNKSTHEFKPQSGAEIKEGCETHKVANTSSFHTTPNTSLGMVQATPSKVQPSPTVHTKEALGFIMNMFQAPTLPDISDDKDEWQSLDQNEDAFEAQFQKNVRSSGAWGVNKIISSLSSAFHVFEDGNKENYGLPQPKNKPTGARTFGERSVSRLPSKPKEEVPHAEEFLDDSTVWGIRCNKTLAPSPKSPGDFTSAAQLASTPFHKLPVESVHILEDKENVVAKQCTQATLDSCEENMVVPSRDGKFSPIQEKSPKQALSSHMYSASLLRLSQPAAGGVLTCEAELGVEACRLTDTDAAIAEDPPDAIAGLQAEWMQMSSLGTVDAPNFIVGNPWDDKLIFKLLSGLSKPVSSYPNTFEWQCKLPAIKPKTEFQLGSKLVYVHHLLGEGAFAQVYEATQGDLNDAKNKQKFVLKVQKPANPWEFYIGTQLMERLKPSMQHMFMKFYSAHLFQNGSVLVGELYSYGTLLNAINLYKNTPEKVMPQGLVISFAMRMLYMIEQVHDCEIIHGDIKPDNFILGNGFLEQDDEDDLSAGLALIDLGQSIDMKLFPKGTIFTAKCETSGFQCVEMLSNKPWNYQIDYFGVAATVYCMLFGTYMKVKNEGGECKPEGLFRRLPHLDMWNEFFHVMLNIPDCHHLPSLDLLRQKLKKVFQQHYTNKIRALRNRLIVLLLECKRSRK", "conditions": "for logFC: BUB1 (O43683); for logFC BUB1 (O43683): direction down"}, "[5]": {"target": "protein kinases (human kinome) (Homo sapiens, UniProt P53667)", "sequence (P53667 whole entry)": "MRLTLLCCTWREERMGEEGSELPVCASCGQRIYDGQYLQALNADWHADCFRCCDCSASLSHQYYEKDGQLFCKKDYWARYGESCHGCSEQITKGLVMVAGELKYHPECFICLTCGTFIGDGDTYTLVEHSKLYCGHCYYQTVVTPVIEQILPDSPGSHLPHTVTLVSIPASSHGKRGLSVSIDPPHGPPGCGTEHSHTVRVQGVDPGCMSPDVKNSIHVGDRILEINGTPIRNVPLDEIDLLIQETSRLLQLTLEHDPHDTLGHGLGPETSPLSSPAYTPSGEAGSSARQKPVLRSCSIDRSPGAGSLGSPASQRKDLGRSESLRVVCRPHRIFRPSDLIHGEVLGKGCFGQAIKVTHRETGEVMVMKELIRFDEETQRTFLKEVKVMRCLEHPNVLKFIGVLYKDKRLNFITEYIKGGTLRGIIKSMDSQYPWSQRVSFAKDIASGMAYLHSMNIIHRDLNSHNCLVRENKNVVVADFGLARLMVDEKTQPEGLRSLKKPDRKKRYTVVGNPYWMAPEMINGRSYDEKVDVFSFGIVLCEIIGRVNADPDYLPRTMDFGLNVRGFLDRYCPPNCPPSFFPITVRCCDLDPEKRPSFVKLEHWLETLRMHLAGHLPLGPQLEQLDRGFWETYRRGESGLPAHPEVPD", "conditions": "LIMK1 (P53667-1)"}, "[6]": {"target": "protein kinases (human kinome) (Homo sapiens, UniProt Q9HBH9)", "sequence (Q9HBH9 whole entry)": "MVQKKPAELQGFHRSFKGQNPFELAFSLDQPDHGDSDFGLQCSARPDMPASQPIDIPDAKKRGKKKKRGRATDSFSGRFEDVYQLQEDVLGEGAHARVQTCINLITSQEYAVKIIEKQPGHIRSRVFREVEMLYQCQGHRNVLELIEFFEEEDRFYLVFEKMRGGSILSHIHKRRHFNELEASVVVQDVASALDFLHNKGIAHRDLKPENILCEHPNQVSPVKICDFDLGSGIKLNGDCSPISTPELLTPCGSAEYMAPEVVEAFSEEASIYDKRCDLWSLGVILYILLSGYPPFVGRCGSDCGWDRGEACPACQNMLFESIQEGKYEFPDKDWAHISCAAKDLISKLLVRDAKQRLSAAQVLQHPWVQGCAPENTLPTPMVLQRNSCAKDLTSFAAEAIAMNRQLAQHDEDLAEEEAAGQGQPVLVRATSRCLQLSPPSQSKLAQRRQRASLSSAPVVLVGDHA", "conditions": "for logFC MKNK2 (Q9HBH9-1): direction down; for logFC: MKNK2 (Q9HBH9-1)"}, "[7]": {"target": "protein kinases (human kinome) (Homo sapiens, UniProt P50613)", "sequence (P50613 whole entry)": "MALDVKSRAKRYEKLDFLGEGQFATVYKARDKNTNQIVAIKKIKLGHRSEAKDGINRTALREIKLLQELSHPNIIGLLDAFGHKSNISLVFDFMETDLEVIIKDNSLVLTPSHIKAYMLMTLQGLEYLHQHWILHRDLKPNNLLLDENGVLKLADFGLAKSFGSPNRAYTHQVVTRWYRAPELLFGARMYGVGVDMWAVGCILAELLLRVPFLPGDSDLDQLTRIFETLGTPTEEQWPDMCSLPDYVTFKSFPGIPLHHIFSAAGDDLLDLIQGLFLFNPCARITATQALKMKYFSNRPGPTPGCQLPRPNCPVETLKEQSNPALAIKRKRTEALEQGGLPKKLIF", "conditions": "CDK7 P50613"}, "[8]": {"target": "protein kinases (human kinome) (Homo sapiens, UniProt Q00537)", "sequence (Q00537 whole entry)": "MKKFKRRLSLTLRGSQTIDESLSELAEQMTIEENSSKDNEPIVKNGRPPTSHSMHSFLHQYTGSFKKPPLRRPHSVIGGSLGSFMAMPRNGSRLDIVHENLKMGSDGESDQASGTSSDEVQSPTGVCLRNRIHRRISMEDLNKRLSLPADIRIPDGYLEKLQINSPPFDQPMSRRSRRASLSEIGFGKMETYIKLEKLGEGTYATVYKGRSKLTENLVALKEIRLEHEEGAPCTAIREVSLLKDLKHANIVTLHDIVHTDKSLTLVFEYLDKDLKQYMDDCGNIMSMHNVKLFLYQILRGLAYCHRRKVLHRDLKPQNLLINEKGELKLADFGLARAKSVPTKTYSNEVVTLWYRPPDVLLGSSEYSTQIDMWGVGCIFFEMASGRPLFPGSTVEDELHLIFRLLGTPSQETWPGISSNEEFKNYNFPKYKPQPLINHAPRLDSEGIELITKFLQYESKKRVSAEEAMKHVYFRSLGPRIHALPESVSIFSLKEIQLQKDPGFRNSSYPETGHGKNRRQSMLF", "conditions": "for logFC of CDK17: Accession Q00537; for logFC CDK17 (Q00537): direction of change down"}},
  "note": "Like-named read-outs stand apart in the source and are kept apart here.",
  "data": [
    {"smiles": "CC(C)S(=O)(=O)c1ccccc1Nc1nc(Nc2ccc(N3CCN(CCOCCNC(=O)CNc4cccc5c4C(=O)N(C4CCC(=O)NC4=O)C5=O)CC3)cc2)ncc1Cl", "note": "(centres unmarked) [SK.3.91]", "values": [
      {"measurement": "logFC CDK12", "setting": "[1]; Accession Q9NYV4-1, experiment wp016", "result": "−1.134"},
      {"measurement": "logFC CDK12", "setting": "[1]; Accession Q9NYV4-1, experiment wp016, 1 uM", "result": "−0.9325"},
      {"measurement": "logFC CDK12", "setting": "[1]; Accession Q9NYV4-1, experiment wp172", "result": "−1.234"},
      {"measurement": "logFC CDK12", "setting": "[1]; CDK12 (Q9NYV4-1), experiment wp016", "result": "−1.134"},
      {"measurement": "logFC CDK12", "setting": "[1]; CDK12 (Q9NYV4-1), experiment wp016, 1 uM", "result": "−0.9325"},
      {"measurement": "logFC CDK12", "setting": "[1]; CDK12 (Q9NYV4-1), experiment wp172", "result": "−1.234"},
      {"measurement": "logFC MAP3K11 (Q16584)", "setting": "[2]; experiment wp103", "result": "−0.7838"},
      {"measurement": "logFC MAP3K11 (Q16584)", "setting": "[2]; experiment wp107", "result": "−2.182"},
      {"measurement": "logFC MAP3K11 (Q16584)", "setting": "[2]; experiment wp114", "result": "−0.4774"},
      {"measurement": "logFC MAP3K11 (Q16584)", "setting": "[2]; experiment wp133, 1 hr", "result": "−0.3986"},
      {"measurement": "logFC MAP3K11 (Q16584)", "setting": "[2]; experiment wp133, 2 hr", "result": "−0.8441"},
      {"measurement": "logFC MAP3K11 (Q16584)", "setting": "[2]; experiment wp133, 4 hr", "result": "−1.487"},
      {"measurement": "logFC UHMK1", "setting": "[3]; Accession Q8TAS1, experiment wp160, 2 hr, direction down", "result": "−0.4144"},
      {"measurement": "logFC UHMK1", "setting": "[3]; Accession Q8TAS1, experiment wp160, 4 hr, direction down", "result": "−0.3959"},
      {"measurement": "logFC UHMK1", "setting": "[3]; UHMK1 (Q8TAS1), experiment wp160, 2 hr", "result": "−0.4144"},
      {"measurement": "logFC UHMK1", "setting": "[3]; UHMK1 (Q8TAS1), experiment wp160, 4 hr", "result": "−0.3959"},
      {"measurement": "logFC", "setting": "[4]; experiment wp133, 1 hr", "result": "−0.4907"},
      {"measurement": "logFC", "setting": "[4]; experiment wp133, 2 hr", "result": "−0.4456"},
      {"measurement": "logFC", "setting": "[4]; experiment wp133, 4 hr", "result": "−0.5963"},
      {"measurement": "logFC BUB1 (O43683)", "setting": "[4]; Experiment wp133, 1 hr", "result": "−0.4907"},
      {"measurement": "logFC BUB1 (O43683)", "setting": "[4]; Experiment wp133, 2 hr", "result": "−0.4456"},
      {"measurement": "logFC BUB1 (O43683)", "setting": "[4]; Experiment wp133, 4 hr", "result": "−0.5963"},
      {"measurement": "logFC LIMK1", "setting": "[5]; direction down, experiment wp103", "result": "−1.238"},
      {"measurement": "logFC LIMK1", "setting": "[5]; direction down, experiment wp105", "result": "−1.464"},
      {"measurement": "logFC LIMK1", "setting": "[5]; direction down, experiment wp107", "result": "−0.8704"},
      {"measurement": "logFC LIMK1", "setting": "[5]; direction down, experiment wp114", "result": "−0.546"},
      {"measurement": "logFC LIMK1", "setting": "[5]; direction down, experiment wp133, 1 hr", "result": "−0.4117"},
      {"measurement": "logFC LIMK1", "setting": "[5]; direction down, experiment wp133, 2 hr", "result": "−0.8026"},
      {"measurement": "logFC LIMK1", "setting": "[5]; direction down, experiment wp133, 4 hr", "result": "−1.371"},
      {"measurement": "logFC LIMK1", "setting": "[5]; direction down, experiment wp160, 2 hr", "result": "−0.8634"},
      {"measurement": "logFC LIMK1", "setting": "[5]; direction down, experiment wp160, 4 hr", "result": "−1.366"},
      {"measurement": "logFC LIMK1", "setting": "[5]; direction down, experiment wp172", "result": "−1.869"},
      {"measurement": "logFC LIMK1", "setting": "[5]; experiment wp103, down", "result": "−1.238"},
      {"measurement": "logFC LIMK1", "setting": "[5]; experiment wp105, down", "result": "−1.464"},
      {"measurement": "logFC LIMK1", "setting": "[5]; experiment wp107, down", "result": "−0.8704"},
      {"measurement": "logFC LIMK1", "setting": "[5]; experiment wp114, down", "result": "−0.546"},
      {"measurement": "logFC LIMK1", "setting": "[5]; experiment wp133, 1 hr, down", "result": "−0.4117"},
      {"measurement": "logFC LIMK1", "setting": "[5]; experiment wp133, 2 hr, down", "result": "−0.8026"},
      {"measurement": "logFC LIMK1", "setting": "[5]; experiment wp133, 4 hr, down", "result": "−1.371"},
      {"measurement": "logFC LIMK1", "setting": "[5]; experiment wp160, 2 hr, down", "result": "−0.8634"},
      {"measurement": "logFC LIMK1", "setting": "[5]; experiment wp160, 4 hr, down", "result": "−1.366"},
      {"measurement": "logFC LIMK1", "setting": "[5]; experiment wp172, down", "result": "−1.869"},
      {"measurement": "logFC MKNK2 (Q9HBH9-1)", "setting": "[6]; Experiment wp133, 1 hr", "result": "−0.5168"},
      {"measurement": "logFC MKNK2 (Q9HBH9-1)", "setting": "[6]; Experiment wp133, 2 hr", "result": "−0.5303"},
      {"measurement": "logFC MKNK2 (Q9HBH9-1)", "setting": "[6]; Experiment wp133, 4 hr", "result": "−0.8537"},
      {"measurement": "logFC", "setting": "[6]; experiment wp133, 1 hr", "result": "−0.5168"},
      {"measurement": "logFC", "setting": "[6]; experiment wp133, 2 hr", "result": "−0.5303"},
      {"measurement": "logFC", "setting": "[6]; experiment wp133, 4 hr", "result": "−0.8537"},
      {"measurement": "logFC CDK7", "setting": "[7]; experiment wp016", "result": "−0.5236"},
      {"measurement": "logFC CDK7", "setting": "[7]; experiment wp105", "result": "−0.6307"},
      {"measurement": "logFC CDK7", "setting": "[7]; experiment wp107", "result": "−0.4632"},
      {"measurement": "logFC CDK7", "setting": "[7]; experiment wp114", "result": "−0.5255"},
      {"measurement": "logFC CDK7", "setting": "[7]; experiment wp172", "result": "−1.186"},
      {"measurement": "logFC of CDK17", "setting": "[8]; experiment wp016", "result": "−0.7341"},
      {"measurement": "logFC of CDK17", "setting": "[8]; experiment wp016, 1 uM", "result": "−0.7503"},
      {"measurement": "logFC of CDK17", "setting": "[8]; experiment wp103", "result": "−0.6015"},
      {"measurement": "logFC of CDK17", "setting": "[8]; experiment wp105", "result": "−0.732"},
      {"measurement": "logFC of CDK17", "setting": "[8]; experiment wp107", "result": "−0.6145"},
      {"measurement": "logFC of CDK17", "setting": "[8]; experiment wp133, 2 hr", "result": "−0.372"},
      {"measurement": "logFC of CDK17", "setting": "[8]; experiment wp133, 4 hr", "result": "−0.611"},
      {"measurement": "logFC of CDK17", "setting": "[8]; experiment wp160, 4 hr", "result": "−0.3952"},
      {"measurement": "logFC of CDK17", "setting": "[8]; experiment wp172", "result": "−0.7492"},
      {"measurement": "logFC CDK17 (Q00537)", "setting": "[8]; Experiment wp105", "result": "−0.732"},
      {"measurement": "logFC CDK17 (Q00537)", "setting": "[8]; experiment wp016, 1 uM", "result": "−0.7503"},
      {"measurement": "logFC CDK17 (Q00537)", "setting": "[8]; experiment wp016", "result": "−0.7341"},
      {"measurement": "logFC CDK17 (Q00537)", "setting": "[8]; experiment wp103", "result": "−0.6015"},
      {"measurement": "logFC CDK17 (Q00537)", "setting": "[8]; experiment wp107", "result": "−0.6145"},
      {"measurement": "logFC CDK17 (Q00537)", "setting": "[8]; experiment wp133, 2 hr", "result": "−0.372"},
      {"measurement": "logFC CDK17 (Q00537)", "setting": "[8]; experiment wp133, 4 hr", "result": "−0.611"},
      {"measurement": "logFC CDK17 (Q00537)", "setting": "[8]; experiment wp160, 4 hr", "result": "−0.3952"},
      {"measurement": "logFC CDK17 (Q00537)", "setting": "[8]; experiment wp172", "result": "−0.7492"}
    ]}
  ]
}
